Results taken from patent US8394434B2, “SCF extract containing cardiac glycoside” (Phoenix Biotechnology, Inc., priority 2005, dated 2013).

Experiments:
Human melanoma BRO cells = assay: Cytotoxicity comparison, crystal violet staining (Example 10); format: cell-based; details: presented as μM oleandrin concentration in the extract, 72 hr incubation
Method: (§1) The extracts also differ in their relative performance as determined by efficacy against several tumor cell lines (Example 10). Oleandrin-containing samples were prepared to contain the same amount of oleandrin although the concentration of oleandrin in each sample varied due to the differences in the concentration of in the extracts. The data obtained are summarized in the table below and in FIGS. 4 and 5.
(§2) The cytotoxic potential of both extracts are compared directly with that of oleandrin. The samples contained the same amounts of oleandrin even though their concentration of oleandrin differed due to the concentration of oleandrin present in the extracts.
(§3) BRO (human melanoma) and Panc-1 (human pancreatic cancer) cells (8×10^3/well) were plated in a 96 well plate and allowed to attach overnight. Drug or extracts were then added to the cells. After 72 hr of incubation, relative cell proliferation (relative to control untreated cells) was assessed by crystal violet staining method.

[1] = tested on: Human pancreatic cancer PANC-1 cells; assay: as above; format: cell-based; details: presented as μM oleandrin concentration in the extract, 72 hr incubation
Method: as §1, §2, §3

[2] = tested on: Akt (pAkt) in Panc-1 cells; assay: Phosphorylation of Akt, gel electropherogram (FIG. 3); format: cell-based, human
Source text: (§4) FIG. 3 depicts a photograph of the relevant bands of a gel electropherogram obtained as part of an assay comparing the activity of oleandrin, hot-water extract and the SCF extract of the invention toward inhibition of phosphoryation (active form) of Akt and augmentation of (phosphorylation) of Erk.
(§5) Phosphorylation of the serine/threonine kinase known as Akt provides tumor cells with enhanced survival capability. Increased Akt activity promotes survival of tumor cells that would normally undergo death by apoptosis. In addition, pAkt is involved in cell proliferation, angiogenesis, genome instability and cell invasion and migration (Yoeli-Lerner M and Toker A. Akt/PKB Signaling in Cancer. Cell Cycle 5:603-605, 2006). All of these responses contribute to initiation and progression. Further evidence of the importance of Akt signaling in cancer comes from studies which have detected over-expression and hyper-activation (through phosphorylation) of Akt in a wide range of human tumors, and this is often linked with poor prognosis. The relative activity of the hot-water and SCF extract on critical cell signaling proteins in human pancreatic cancer (Panc-1) cells were also compared. […] The relative ability of the supercritical CO2 extract to inhibit pAkt expression is much greater than that of oleandrin or the hot water extract of Nerium oleander. […]

[3] = tested on: ERK (pERK) in Panc-1 cells; assay: Expression of pERK, gel electropherogram (FIG. 3); format: cell-based, human
Source text: as §4, §5

PANC-1 cells = assay: Cell cycle analysis by flow cytometry; format: cell-based, human; details: 25 nM oleandrin or extract equivalent to 25 nM oleandrin, 24 hrs
Method: The effect of oleandrin, the hot-water and SCF extract upon cell cycle changes of PANC-1 cells treated therewith was evaluated over a 24-hour period. Panc-1 cells were treated with 25 nM of oleandrin alone or the amount of hot water extract or supercritical CO2 extract of oleander which was equivalent to 25 nM of oleandrin for 24 hrs. Cell cycle analysis was carried out by flow cytometry. Cell division consists of two consecutive processes, mainly characterized by DNA replication and then segregation of replicated chromosomes into two separate cells. Replication of DNA occurs in a specific part of the interphase called S phase. S phase is preceded by a gap called G1 during which the cell is preparing for DNA synthesis. This is […] then followed by a gap called G2 during which the cell prepares for mitosis. Then this is followed with the mitosis phase, or M phase. G1, S, G2 and M phases are the traditional subdivisions of the standard cell cycle. Cells which are in a G2/M block such as that induced by the supercritical CO2 extract cannot undergo division.
The data are expressed as the relative percentage of cells in a given phase of the cell cycle.

For `CO[C@H]1C[C@H](O[C@H]2CC[C@@]3(C)[C@H](CC[C@@H]4[C@@H]3CC[C@]3(C)[C@@H](C5=CC(=O)OC5)[C@@H](OC(C)=O)C[C@]43O)C2)O[C@@H](C)[C@@H]1O` [Oleandrin, oleandrin], the IC50 (Human melanoma BRO cells) was 0.017 µM, the IC50 [1] was 0.01 µM and the “inhibition of PI3 Kinase resulting in reduction of phosphorylation of Akt” value [2] was “reduction of phosphorylation of Akt”. The “expression of pERK” value [3] was “dramatically increased”, the “G1 phase, relative percentage of cells” value (PANC-1 cells) was 30.5% and the “G2/M phase, relative percentage of cells” value (PANC-1 cells) was 26.2%. For the same compound, the “S phase, relative percentage of cells” value (PANC-1 cells) was 43.3%.
